# Source: patent US11229618B2 (Amarin Pharmaceuticals Ireland Limited, priority 2012, dated 2022)
# Assays:
# [1] = Cross-study analysis of trough EPA concentrations in plasma and RBCs (Phase 1 PK, MARINE, ANCHOR); format: in vivo, human
# Description: The objective of this Example is to examine the effects of high-purity ethyl eicosapentaenoate (“IPE”) on EPA concentrations in plasma and RBCs in response to dose and the relationship to triglyceride (“TG”) lowering across 3 clinical studies.
# MARINE and ANCHOR were 12-week, phase 3, double-blind studies that randomized patients to IPE 4 g/day, 2 g/day, or placebo. MARINE randomized 229 patients with TG≥500 and ≤2000 mg/dL while ANCHOR randomized 702 high-risk patients with TG≥200 and ≤500 mg/dL despite LDL-C control while on statin therapy. IPE 4 g/day and 2 g/day were also investigated in 48 healthy subjects for 4 weeks in a phase 1 pharmacokinetic (“PK”) study. […]
# In the MARINE and ANCHOR studies, the trough EPA concentrations were measured after 12 weeks of dosing with placebo, 2 g/day or 4 g/day IPE
# In the Phase 1 PK study, the trough EPA concentrations were measured after 28 days of dosing with 2 or 4 g/day IPE (there was no placebo group; a value of zero is used in plots as a point of reference)
# EPA concentrations were measured with a validated LC-MS/MS method in plasma and in RBCs in all 3 studies […]
# Quantitation utilized linolenic acid as an internal standard and EPA as the standard for the calibration curve; for total plasma EPA and total RBC EPA, the lower limits of quantitation were 10 μg/mL and 5 μg/mL, respectively
# fasting TG levels = experiment: ANCHOR: fasting TG lowering and LDL-C; format: in vivo, human; conditions: for median percent reductions in TG from baseline, 4 g/day compared with 2 g/day: 12 weeks
# Description: A multi-center, placebo-controlled, randomized, double-blind, 12-week study was performed to evaluate the efficacy and safety of >96% E-EPA in patients with fasting triglyceride levels≥200 mg/dl and <500 mg/dl despite statin therapy (the mean of two qualifying entry values needed to be ≥185 mg/dl and at least one of the values needed to be ≥200 mg/dl). The primary objective of the study was to determine the efficacy of >96% E-EPA 2 g daily and 4 g daily, compared to placebo, in lowering fasting TG levels in patients with high risk for cardiovascular disease and with fasting TG levels≥200 mg/dL and <500 mg/dL, despite treatment to LDL-C goal on statin therapy.
# The primary efficacy variable for the double-blind treatment period was percent change in TG from baseline to Week 12 endpoint. The secondary efficacy variables for the double-blind treatment period included the following: • Percent changes in total cholesterol (TC), high-density lipoprotein cholesterol (HDL-C), LDL-C, calculated non-HDL-C, and very low-density lipoprotein cholesterol (VLDL-C) from baseline to Week 12 endpoint; • Percent change in very low-density lipoprotein TG from baseline to Week 12; • Percent changes in apolipoprotein A-I (apo A-I), apolipoprotein B (apo B), and apo A-I/apo B ratio from baseline to Week 12; • Percent changes in lipoprotein(a) from baseline to Week 12; • Percent changes in LDL particle number and size, measured by nuclear magnetic resonance, from baseline to Week 12; • Percent change in remnant-like particle cholesterol from baseline to Week 12; • Percent change in oxidized LDL from baseline to Week 12; • Changes in FPG and HbA1c from baseline to Week 12; • Change in insulin resistance, as assessed by the homeostasis model index insulin resistance, from baseline to Week 12; • Percent change in lipoprotein associated phospholipase A2 (Lp-PLA2) from baseline to Week 12; • Change in intracellular adhesion molecule-1 from baseline to Week 12; • Change in interleukin-2 from baseline to Week 12; • Change in plasminogen activator inhibitor-1 from baseline to Week 12. Note: this parameter will only be collected at sites with proper storage conditions; • Change in hsCRP from baseline to Week 12; and • Change in plasma concentration and red blood cell membrane content of fatty acid from baseline to Week 12 including EPA, docosapentaenoic acid (DPA), docosahexaenoic acid (DHA), arachidonic acid (AA), dihomo-γ-linolenic acid (DGLA), the ratio of EPA/AA, ratio of oleic acid/stearic acid (OA/SA), and the ratio of total omega-3 acids over total omega-6 acids.
# The primary efficacy analysis was performed using a 2-way analysis of covariance (ANCOVA) model with treatment as a factor and baseline TG value as a covariate. […]
structure (smiles),measurement,setting,value
"CC/C=C\C/C=C\C/C=C\C/C=C\C/C=C\CCCC(=O)OCC [IPE, all-cis eicosa-5,8,11,14,17-pentaenoic acid ethyl ester]",dose dependence of plasma and RBC EPA levels,"[1]; 2 and 4 g/day groups, all 3 studies",linear with dose
same,"effect of demographic factors, baseline TG levels and concomitant medications on EPA concentrations in plasma and RBCs",[1]; MARINE and ANCHOR,did not affect the increase in EPA concentrations
same,effect on LDL-C,fasting TG levels,without raising LDL-C
same,"median percent reductions in TG from baseline, 4 g/day compared with 2 g/day",fasting TG levels,higher with IPE 4 g/day than with 2 g/day
same,"median percent reductions in TG from baseline, 4 g/day compared with 2 g/day",fasting TG levels; listed as EPA,higher for subjects administered about 4 grams of EPA per day
same,effect on TG levels,fasting TG levels; patients with high TG levels on statin therapy,significantly reduced TG levels
